Reference: patent publication US12427183B2, “Methods of treating cancer, infectious disease, and autoimmune disease using chemokines” (New York Society for the Relief of the Ruptured and …, priority 2016, dated 2025)

Key:
CXCR3 = CXCR3 inhibition during chemokine-potentiated TLR9 activation of pDCs, IFN-α ELISA; type: cell-based, human; settings: AMG487 0.1, 1 or 10 μM, CpG 0.25 μM, 24 hours
Experimental: Purified pDCs from HDs were cultured in media alone (control), with either a CpG TLR9 agonist (0.25 μM) or with CpG and either CXCL4 or CXCL10 (both at 10 μg/ml) alone or in the presence of the CXCR3 inhibitor AMG487 at 0, 0.1, 1 or 10 μM for 24 hours. IFN-α was quantified in the supernatants by ELISA.

PI3Kδ = PI3Kδ (Homo sapiens, UniProt O00329); settings: at the concentration used (10 μM)
Sequence of PI3Kδ (O00329 whole entry): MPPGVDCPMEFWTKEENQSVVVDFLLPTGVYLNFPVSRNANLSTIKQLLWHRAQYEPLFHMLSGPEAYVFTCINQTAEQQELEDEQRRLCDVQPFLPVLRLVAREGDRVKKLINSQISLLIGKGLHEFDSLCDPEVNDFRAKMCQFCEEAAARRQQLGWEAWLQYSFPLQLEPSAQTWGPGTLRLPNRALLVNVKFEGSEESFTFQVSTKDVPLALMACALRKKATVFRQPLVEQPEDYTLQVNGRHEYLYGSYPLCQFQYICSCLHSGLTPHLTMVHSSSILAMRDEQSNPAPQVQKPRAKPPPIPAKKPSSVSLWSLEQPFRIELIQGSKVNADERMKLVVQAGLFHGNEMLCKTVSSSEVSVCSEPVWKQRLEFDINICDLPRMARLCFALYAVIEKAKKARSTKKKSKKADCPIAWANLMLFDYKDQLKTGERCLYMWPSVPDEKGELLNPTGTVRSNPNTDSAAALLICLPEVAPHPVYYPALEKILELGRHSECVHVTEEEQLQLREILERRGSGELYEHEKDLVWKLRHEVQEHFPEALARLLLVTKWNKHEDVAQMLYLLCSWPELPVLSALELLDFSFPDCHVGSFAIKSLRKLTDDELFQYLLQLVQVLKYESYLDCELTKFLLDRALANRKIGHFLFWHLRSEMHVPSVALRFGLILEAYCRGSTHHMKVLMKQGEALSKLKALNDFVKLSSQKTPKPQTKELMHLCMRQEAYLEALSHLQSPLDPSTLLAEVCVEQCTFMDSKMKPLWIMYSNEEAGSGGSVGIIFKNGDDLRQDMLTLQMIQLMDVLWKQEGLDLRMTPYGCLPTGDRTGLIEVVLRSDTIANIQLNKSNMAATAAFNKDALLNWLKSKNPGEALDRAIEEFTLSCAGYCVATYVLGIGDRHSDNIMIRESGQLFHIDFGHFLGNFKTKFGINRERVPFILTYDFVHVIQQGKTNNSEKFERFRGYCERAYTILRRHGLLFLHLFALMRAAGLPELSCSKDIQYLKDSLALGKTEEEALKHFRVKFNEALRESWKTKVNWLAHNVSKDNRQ
Sequence of PI3Kδ (P27986 whole entry partner): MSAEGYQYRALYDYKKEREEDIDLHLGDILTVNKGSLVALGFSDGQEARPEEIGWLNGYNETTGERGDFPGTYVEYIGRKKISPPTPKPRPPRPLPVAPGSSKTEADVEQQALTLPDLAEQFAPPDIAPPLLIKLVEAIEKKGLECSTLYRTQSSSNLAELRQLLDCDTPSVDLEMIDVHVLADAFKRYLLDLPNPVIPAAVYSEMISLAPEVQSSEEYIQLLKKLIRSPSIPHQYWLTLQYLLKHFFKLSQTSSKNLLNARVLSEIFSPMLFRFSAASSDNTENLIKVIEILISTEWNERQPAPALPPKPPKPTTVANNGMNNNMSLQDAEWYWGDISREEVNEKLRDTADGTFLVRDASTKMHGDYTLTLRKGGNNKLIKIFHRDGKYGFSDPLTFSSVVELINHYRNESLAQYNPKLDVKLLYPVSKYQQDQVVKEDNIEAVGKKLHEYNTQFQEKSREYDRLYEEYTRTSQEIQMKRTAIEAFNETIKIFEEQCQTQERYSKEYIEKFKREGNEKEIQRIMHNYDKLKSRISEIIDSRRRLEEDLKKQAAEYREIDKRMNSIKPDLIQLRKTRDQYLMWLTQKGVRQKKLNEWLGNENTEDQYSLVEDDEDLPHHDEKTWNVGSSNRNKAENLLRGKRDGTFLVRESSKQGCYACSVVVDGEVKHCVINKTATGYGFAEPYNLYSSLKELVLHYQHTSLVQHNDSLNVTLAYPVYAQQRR

Structure (SMILES) | effect of CXCR3 inhibition on the activation of TLR9 by CXCL4 in pDCs (CXCR3; CXCL4 10 μg/ml) | effect of CXCR3 inhibition on the activation of TLR9 by CXCL10 in pDCs (CXCR3; CXCL10 10 μg/ml) | cell viability of pDCs from HDs (PI3Kδ)
CCOc1ccc(-n2c([C@@H](C)N(Cc3cccnc3)C(=O)Cc3ccc(OC(F)(F)F)cc3)nc3ncccc3c2=O)cc1 [AMG487] | no effect | no effect | 
CC[C@H](Nc1ncnc2[nH]cnc12)c1nc2cccc(F)c2c(=O)n1-c1ccccc1 [CAL-101] |  |  | without impacting
